The test system of this test is neonatal rat ventricular myocytes. Briefly: Cardiomyocyte hypertrophy (a-actinin staining, cell surface area) in cultured neonatal rat cardiomyocytes. Type of test: cell-based. Also on record: dose or concentration left out as unconfirmed. The following applies: cells treated with the control siRNA; AdCnA infection or phenylephrine. As to the method:
Cardiomyocyte cultures and siRNA transfection. Neonatal rat ventricular myocytes were obtained as described previously in detail^6. Neonatal ventricular rat myocytes were obtained by enzymatic dissociation of 1-2 day old rat neonatal ventricles. Ventricles were stored in HEPES buffered DMEM (pH. 7.4) prior to multiple rounds of enzymatic digestion in DMEM nutrient mixture F-12 Ham base (Sigma) supplemented with 0.7 mg/ml collagenase type 2 (Invitrogen) and 1 mg/ml […] (Sigma). Cells were collected by centrifugation at 61×g for 10 min., resuspended in neonatal calf serum (Invitrogen) and stored in an incubator at 37° C. All cell suspensions were pooled, centrifuged at 61×g for 10 min. and resuspended in DMEM (Invitrogen) supplemented with 10% horse serum (Invitrogen) and 5% fetal calf serum (Invitrogen). […]
Immunocytochemistry and confocal microscopy. […] Cells were washed 3 times with PBS for 5 minutes, mounted with coverslips in 0.1 M Tris-HCl (pH 9.5)-glycerol (3:7) including 50 mg/ml n-propylgallate as anti-fading reagent, and analyzed by confocal microscopy using a Zeiss LSM 510 META instrument. […] Cell surface areas were determined using SPOT-imaging software (Diagnostic Instruments) on 80-100 GFP-positive cardiomyocytes in 10 to 20 fields in three independent experiments. […]

With `CNC[C@H](O)c1cccc(O)c1` [PE, phenylephrine], the hypertrophy response result was “robust hypertrophy response”.
